Data taken from patent publication US20260072030A1, “RAS BIOSENSORS” (The Regents of the University of California, priority 2022, published 2026).

Key:
Assay type in all cases: cell-based
[1] = tested on: EGFR; assay: Reversal of EGF-induced RasAR response by EGFR inhibitor; details: RasAR + mCherry-KRasWT, 100 ng/ml EGF followed by 200 nM AG1478
Text: To determine whether RasAR can detect dynamic Ras activity, we co-expressed the sensor with mCherry-KRasWT in COS-7 cells and stimulated the cells with epidermal growth factor (EGF). […] Consistent with previous studies,26 we observed higher C/Y emission ratios in membrane ruffles following EGF stimulation, indicating enhanced KRas activity in these regions. In addition, consistent with the Golgi localization of Ras,26 we observed an increased activity in the Golgi compartment (FIGS. 2A and 8). […] The EGF-stimulated increases in the emission ratio occurred in both the membrane ruffles as well as the Golgi compartment (FIGS. 2B-2C and 8), with slower kinetics observed at the Golgi (FIG. 7A).
Cells were washed three times with Hanks's balanced salt solution (HBSS, Gibco) prior to imaging. Cells were imaged in HBSS in the dark at 37° C. […] Cells were imaged on a Zeiss Axio Observer Z1 microscope equipped with a 20×/0.8 NA objective and a Hamamatsu Flash 4.0 sCMOS camera, controlled using MicroManager 2.0 software. […] All fluorescence images were background-correcting by rolling circle background subtraction in ImageJ using a rolling-ball circle radius of 350 pixels. Cyan/yellow or yellow/cyan emission ratios were then calculated by dividing the CFP channel values by the CYFRET channel values, or the CYFRET channel values by CFP channel values, respectively. […]

[2] = tested on: Src; assay: Src inhibitor pretreatment, EGF-induced HRas activity measured with RasAR sensors in COS-7 cells; details: for effect of pretreatment on EGF-induced response, cytosolic RasAR: RasAR + HRasWT, 1 μM inhibitor
Text: To clarify the regulatory role of Src on HRas at the Golgi, we monitored HRas activity at the Golgi with GA-RasAR in the presence of Src inhibitor PP2.
Phosphorylation of residue Y32 has been implicated in the negative regulation of HRas by Src.31 To verify this mechanism of Src inhibition we co-expressed RasAR with HRasY32F and stimulated with EGF. […] KRas was recently shown to be negatively regulated by Src via dual phosphorylation of Y32 and Y64,28 which negatively impacts multiple steps of the GTPase cycle and impairs binding to effectors. However, the role of Y64 in HRas has not been investigated. To test the hypothesis that phosphorylation of both Y32 and Y64 is involved in Src regulation of HRas, we expressed RasAR and an mCherry-labeled HRas mutant containing Y32F/Y64F mutations and monitored EGF-induced responses in the presence and absence of PP2.
Cells were washed three times with Hanks's balanced salt solution (HBSS, Gibco) prior to imaging. Cells were imaged in HBSS in the dark at 37° C. […] Cells were imaged on a Zeiss Axio Observer Z1 microscope equipped with a 20×/0.8 NA objective and a Hamamatsu Flash 4.0 sCMOS camera, controlled using MicroManager 2.0 software. For time series, images from multiple fields of view were acquired at each time point at 30 sec intervals. RFP was imaged using a 568DF55 excitation filter, a 600DRLP dichroic mirror, and a 653DF95 emission filter. CFP was imaged using a 420DF20 excitation filter, a 455DRLP dichroic mirror, and a 470DF40 emission filter. CYFRET was imaged using a 420DF20 excitation filter, a 455DRLP dichroic mirror, and a 535DF25 emission filter. YFP was imaged using a 495DF10 excitation filter, a 515DRLP dichroic mirror, and a 535DF25 emission filter. Exposure times for each channel were 250-500 ms. All filter sets were controlled by a Lambda 10-2 filter-changer (Sutter Instruments). All fluorescence images were background-correcting by rolling circle background subtraction in ImageJ using a rolling-ball circle radius of 350 pixels. Cyan/yellow or yellow/cyan emission ratios were then calculated by dividing the CFP channel values by the CYFRET channel values, or the CYFRET channel values by CFP channel values, respectively. For the time-series analysis, all values were normalized to the time point prior to drug addition by dividing each value by basal ratio value prior to drug addition. Co-expression experiments were processed using Cell Profiler on background subtracted images and segmented using CYFRET channel images. Individual t½ measurements were acquired using custom script within Matlab.

[3] = tested on: mCherry-KRasG12C; assay: Ras expression assessed by RFP intensity in COS-7 cells
[4] = molecular target: T1, KRasG12C (Homo sapiens, UniProt P01116, G12C)
T1 construct: expressed in transfected cells; host or cells: COS-7

[5] = tested on: ERK; assay: ERK activity reporter (EKAR4) Y/C emission ratio in COS-7 cells; details: 10 μM, 3 hr
[6] = molecular target: T2, KRasWT (Homo sapiens, UniProt P01116); assay: Live-cell Ras inhibitor assay, COS-7 cells co-expressing RasAR and KRasWT control; details: KRasWT controls, 10 μM, 24 hr, vs DMSO
T2 construct: host or cells: COS-7

COc1cc2ncnc(Nc3cccc(Cl)c3)c2cc1OC [AG1478]
effect on C/Y emission ratio after EGF stimulation [1]: decrease in the C/Y emission ratio

CC(C)(C)n1nc(-c2ccc(Cl)cc2)c2c(N)ncnc21 [PP2]
effect of pretreatment on EGF-induced response at the Golgi ([2]; GA-RasAR + mCherry-HRas, vs DMSO, n=300 cells each): enhanced | effect of pretreatment on EGF-induced response, cytosolic RasAR ([2]; vs DMSO): larger EGF-induced response | effect of pretreatment on EGF-induced response, HRasY32F ([2]; RasAR + mCherry-HRasY32F, PP2 1 μM, vs control cells): enhanced response to EGF | effect of pretreatment on EGF-induced response, HRas Y32F/Y64F ([2]; RasAR + mCherry-HRasY32F/Y64F, vs control cells, n=180 cells each): no significant difference | effect of pretreatment on EGF-induced Ras activity at the plasma membrane ([2]; pm-RasAR + mCherry-HRasWT, vs DMSO): did not affect EGF-induced Ras activity

C[C@@H]1C[C@@H]([C@H](O)CC2CC(=O)NC(=O)C2)C(=O)[C@@H](C)C1 [cycloheximide]
effect on KRasG12C expression levels ([3]; 24-hr timeframe): reduced KRasG12C expression levels | Cohen's d, RFP intensities with and without cycloheximide ([3]; ARS1620 10 μM, cycloheximide 100 μg/ml): 0.36 | Cohen's f, effect of treatment on mCherry-KRasG12C expression by RFP intensity ([3]; cycloheximide treatment 24 hr): 1.26 | effect of inhibiting protein re-synthesis on kinetics of Ras inactivation by ARS1620 ([4]; ARS1620 10 μM with cycloheximide 100 μg/ml): did not speed up the kinetics of Ras inactivation

COc1cc2ncnc(Nc3ccc(Oc4ccccc4)cc3)c2cc1OC [SrcI1]
effect of pretreatment on EGF-induced response, cytosolic RasAR ([2]; vs DMSO): enhanced EGF-induced Ras activity

C=CC(=O)N1CCN(c2ncnc3c(F)c(-c4c(O)cccc4F)c(Cl)cc23)CC1 [ARS1620]
Cohen's d, effect of treatment on EKAR4 Y/C emission ratio ([5]; mCherry-KRasG12C expressing COS-7 cells): 0.84 | Cohen's d, effect of treatment on EKAR4 Y/C emission ratio ([5]; mCherry-KRasWT expressing COS-7 cells): 0.02 | Cohen's f, RFP intensities across titration treatment groups ([3]; ARS1620 titration experiment, 24 hr): 0.06 | time over which the C/Y emission ratio continuously declines after treatment ([4]; 10 μM inhibitor): 5 h | concentration dependence of C/Y emission ratio ([4]; 10 μM, 3 μM, 1 μM, 0.3 μM, 0.1 μM, 24 hr): dose-dependent inhibition of KRasG12C | effect on RasAR C/Y emission ratio ([4]; 10 μM, 24 hr, vs DMSO): higher C/Y emission ratio in KRasG12C-expressing cells treated with DMSO compared with ARS1620 treatment | effect on RasAR C/Y emission ratio [6]: no effect of inhibitor treatment
